Laboratory results published in patent US12467035B2, “Method of differentiating mesenchymal stem cells into cardiomyocytes” (CHONNAM NATIONAL UNIVERSITY HOSPITAL, priority 2016, dated 2025).

Columns and labels:
[1] = test system: human bone marrow-derived mesenchymal stem cells; experiment: Cell viability of mesenchymal stem cells under glucose deprivation (microscopy); format: cell-based; conditions: glucose-free medium, 3 μM apicidin (12 mM lactic acid in AC/Lac12)
Procedure: To confirm the status changes of mesenchymal stem cells in glucose deprivation conditions, an existing culture medium was replaced with a glucose-free medium, and then cells were observed after a certain period of time. At this time, cells treated with glucose or lactic acid (the case of cells incubated in a glucose-free medium, the case of cells incubated in a glucose-free medium containing lactic acid, the case of cells incubated in a glucose-free medium containing apicidin, or the case of cells incubated in a glucose-free medium containing lactic acid and apicidin) were observed, and the results are shown in FIG. 1.
First, mesenchymal stem cells were cultured in a 6-well plate filled with high glucose DMEM (4 mM L-glutamine, 4500 mg/L glucose, sodium pyruvate, 10% FBS, 100 U/ml penicillin, 100 μg/ml streptomycin) for one day. After culture, the high glucose DMEM was removed, the mesenchymal stem cells were washed twice with a sterile phosphate-saline buffer solution, and a glucose-free medium was added to the mesenchymal stem cells. At this time, the case of cells incubated in a glucose-free medium, the case of cells incubated in a glucose-free medium containing 3 μM apicidin, and the case of cells incubated in a glucose-free medium containing 3 μM apicidin and 12 mM lactic acid are denoted as Veh, AC, and AC/Lac12, respectively. At 4, 7, 20, and 27 hours after incubation, the morphology of the cells was observed under a microscope and images were obtained.
To evaluate the effect of a culture medium on differentiation of mesenchymal stem cells into cardiomyocytes, as described in Example 1-2, mesenchymal stem cells were incubated in a glucose-free medium, in a glucose-free medium containing apicidin, or a glucose-free medium containing apicidin and lactic acid, and cell viability was determined.

mesenchymal stem cells [2] = experiment: Immunocytochemistry of cardiomyocyte-specific marker proteins (GATA4, cTnI); format: cell-based, human; conditions: glucose deprivation, 4 hours, immunofluorescent staining
Procedure: To confirm the expression of cardiomyocyte-specific marker proteins, immunocytochemistry was performed. First, mesenchymal stem cells were inoculated into a 12-well plate filled with a high glucose DMEM medium and cultured for 1 day. Then, the mesenchymal stem cells were incubated into a glucose-free medium (Veh), a glucose-free medium containing apicidin (AC), or a glucose-free medium containing apicidin and lactic acid (AC/Lac) for 4 hours. After incubation, the cell culture medium was removed from each sample, the mesenchymal stem cells were washed once with PBS, and subsequently the cells were fixed with 3.7% formaldehyde for 15 minutes, followed by treatment with 0.1% Triton X-100 for cell permeabilization. Normal goat serum was added and incubated for 1 hour to reduce background noise. Primary antibodies such as anti-GATA4 antibodies, anti-cTnI antibodies or anti-alpha-sarcomeric actin (a-SA) antibodies were added to the samples, followed by incubation at 4° C. overnight. Then, secondary antibodies labeled with a fluorescent dye (Alexa 488 or Alexa 594) were added, followed by incubation for 1 hour. Nuclei were stained with 4′,6-diamidino-2-phenylindole (DAPI), a fluorescent dye. The samples were mounted on slide glass for observation using a fluorescence microscope. […]

mesenchymal stem cells [3] = experiment: qRT-PCR of cardiomyocyte-specific marker genes (GATA4, Nkx2.5, cTnI); format: cell-based, human; conditions: glucose deprivation
Procedure: To determine the degree of differentiation of mesenchymal stem cells into cardiomyocytes by addition of apicidin and lactic acid under glucose deprivation conditions, the expression levels of cardiomyocyte-specific genes were quantitatively analyzed in the cells. More specifically, as in the method of Example 1-2, mesenchymal stem cells were incubated in each of the media for 4 or 20 hours. After incubation, the medium was removed from each sample, followed by washing once with PBS. Then, the mesenchymal stem cells were treated with TRIzol and incubated at room temperature for 10 minutes for cell lysis, and then chloroform was added thereto, followed by centrifugation. A supernatant obtained as a result of centrifugation was recovered, and total RNA was extracted. cDNA was synthesized from the total RNA using a reverse transcriptase (MMLV). Real-time PCR was performed using the synthesized cDNA as a template using a QuantiTect SYBR Green PCR kit to determine the expression levels of cardiomyocyte-specific marker genes (GATA4, Nkx2.5, and cTnI).
Changes in cardiomyocyte-specific gene expression by addition of apicidin or apicidin and lactic acid under glucose deprivation conditions were quantified by RT-PCR according to the method of Example 1-3.

Substance: apicidin
- cell death ([1]; 7 hours): cell death was not observed
- cell death ([1]; 20 hours): partial cell death was observed
- cell death ([1]; 27 hours): cell death was significantly observed
- expression of GATA4 and cTnI, cardiomyocyte-specific proteins (mesenchymal stem cells [2]): increase in the expression
- expression levels of the marker genes (GATA4, Nkx2.5, cTnI) (mesenchymal stem cells [3]; 20 hours after the treatment): remarkably increased
- intracellular gene expression of three cardiomyocyte-specific markers (GATA4, Nkx2.5, and cTnI) (mesenchymal stem cells [3]; incubation 4 or 20 hours): significantly increased
